The target in this assay is T1, hCB1 (Homo sapiens, UniProt P21554).
T1 construct: made in house; host or cells: Sf9 insect cells (baculovirus), P2 membranes
The experiment in a line: Agonist-induced GTP binding (GTPγ35S) assay at CB1, Example 8. In kind it is biochemical. Particulars: read-out: IC50. An outline of the steps:
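Membranes from Sf9 cells co-expressing hCB1 and heterotrimeric G-protein (10 μg protein) in Tris pH 7.4 buffer with 5 μM GDP. Test compounds (10^−10–10^−5 M) competed against 1 nM CP55,940 with […] GTPγ35S, 60 min at room temperature. Filter-bound radioactivity by scintillation, expressed as percent above basal.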

[1] abbreviates: IC50 at CB1, determined as described in Example 8.
Setting [2] is: Table II, IC50 at CB1, GTP binding with 1 nM CP55,940.

Read-outs that look alike come from different tables or passages of the source. Bounds are passed on as bounds.

T1 sequence (P21554 whole entry): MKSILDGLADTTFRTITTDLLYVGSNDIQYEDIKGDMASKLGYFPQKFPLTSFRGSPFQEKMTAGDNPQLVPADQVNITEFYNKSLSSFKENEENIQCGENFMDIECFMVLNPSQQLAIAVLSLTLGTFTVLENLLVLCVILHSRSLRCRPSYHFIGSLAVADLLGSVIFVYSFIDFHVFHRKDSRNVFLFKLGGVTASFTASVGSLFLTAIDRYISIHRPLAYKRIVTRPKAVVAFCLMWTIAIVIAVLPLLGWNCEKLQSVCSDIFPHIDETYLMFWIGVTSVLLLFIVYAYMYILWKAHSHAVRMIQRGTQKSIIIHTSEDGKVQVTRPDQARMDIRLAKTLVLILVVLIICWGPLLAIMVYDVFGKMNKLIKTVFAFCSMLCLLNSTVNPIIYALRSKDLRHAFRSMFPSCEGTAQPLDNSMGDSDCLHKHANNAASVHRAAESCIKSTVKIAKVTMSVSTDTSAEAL

As a reminder, the IC50 is the point on the concentration scale where inhibition reaches its midpoint. As for `Cc1ccc(NC(=O)Nc2ccc(OC(F)F)cc2)cc1Cl` [Compound 611, 1-(3-chloro-4-methylphenyl)-3-[4-(difluoromethoxy)phenyl]urea], the IC50 under setting [1] is under 2000 nM.
With `Cc1ccc(NC(=O)Nc2ccc(C)c(Cl)c2)cc1F` [Compound 776, 1-(3-chloro-4-methylphenyl)-3-(3-fluoro-4-methylphenyl)urea], the IC50 under setting [1] is under 2000 nM.
For `CCOc1cccc(NC(=O)Nc2cccc(CC)c2)c1` [Compound 230, N-(3-ethoxyphenyl)-N′-(3-ethylphenyl)urea], the IC50 under setting [2] is under 2000 nM.
With `CCC(=O)c1ccc(NC(=O)Nc2cccc(OC)c2)cc1` [Compound 591, 1-(3-methoxyphenyl)-3-(4-propionylphenyl)urea], the IC50 under setting [1] is under 2000 nM.
Consider `CCOc1cccc(NC(=O)Nc2cccc(Cl)c2)c1` [Compound 232, N-(3-chlorophenyl)-N′-(3-ethoxyphenyl)urea], for which the IC50 under setting [2] was under 2000 nM.
On to `Cc1ccc(NC(=O)Nc2ccc(C(C)C)cc2)cc1` [Compound 157, N-(4-isopropylphenyl)-N′-(4-methylphenyl)urea], for which the IC50 under setting [2] is under 2000 nM.
As to `O=C(Nc1ccc(OC(F)F)cc1)Nc1cccc(-c2ccccn2)c1` [Compound 62, N-[4-(difluoromethoxy)phenyl]-N′-(3-pyridin-2-ylphenyl)urea], the half-maximal inhibitory concentration (IC50) under setting [2] is under 2000 nM.
As for `O=C(Nc1ccc(OC(F)F)cc1)Nc1cccc(-c2ccc(Cl)cn2)c1` [Compound 74, N-[3-(5-chloropyridin-2-yl)phenyl]-N′-[4-(difluoromethoxy)phenyl]urea], the IC50 under setting [2] was under 2000 nM.
As for `CCc1ccc(NC(=O)Nc2cnc3ccccc3c2)cc1` [Compound 125, N-(4-ethylphenyl)-N′-quinolin-3-ylurea], the IC50 under setting [2] is under 2000 nM.
For `CCc1cccc(NC(=O)Nc2ccc(COC)cc2)c1` [Compound 392, 1-(3-ethylphenyl)-3-[4-(methoxymethyl)phenyl]urea], under setting [1], the IC50 is under 2000 nM.
Regarding `O=C(Nc1ccc(OC(F)F)cc1)Nc1cccc(Br)c1` [Compound 520, 1-(3-bromophenyl)-3-[4-(difluoromethoxy)phenyl]urea], the IC50 under setting [1] was under 2000 nM.
As to `CCOC(=O)c1cccc(NC(=O)Nc2ccc(COC)cc2)c1` [Compound 669, ethyl 3-[({[4-(methoxymethyl)phenyl]amino}carbonyl)amino]benzoate], the IC50 under setting [1] is under 2000 nM.
Regarding `CCOC(=O)c1ccc(NC(=O)Nc2cccc(C)c2)cc1` [Compound 473, ethyl 4-({[(3-methylphenyl)amino]carbonyl}amino)benzoate], the IC50 under setting [1] is under 2000 nM.
Turning to `CC(=O)c1ccc(NC(=O)Nc2cccc(Br)c2)cc1` [Compound 201, N-(4-acetylpheny-)-N′-(3-bromophenyl)urea], under setting [2], the IC50 was under 2000 nM.
`Cc1noc(C)c1-c1cccc(NC(=O)Nc2cccc(OC(F)F)c2)c1` [Compound 146, N-[3-(difluoromethoxy)phenyl]-N′-[3-(3,5-dimethylisoxazol-4-yl)phenyl]urea]: under setting [2], the IC50 was under 2000 nM.
Still for that read-out and setting: the result for `CCCOc1ccc(NC(=O)Nc2cccc(C#N)c2)cc1` [Compound 273, N-(3-cyanophenyl)-N′-(4-propoxyphenyl)urea] reads under 2000 nM; that for `O=C(Nc1ccc(OC(F)F)cc1)Nc1ccc2c(c1)OCCO2` [Compound 88, N-[4-(difluoromethoxy)phenyl]-N′-(2,3-dihydro-1,4-benzodioxin-6-yl)urea], under 2000 nM.
Still for that read-out and setting: the result for `CCOc1cccc(NC(=O)Nc2ccc(C#N)cc2)c1` [Compound 261, N-(4-cyanophenyl)-N′-(3-ethoxyphenyl)urea] reads under 2000 nM.
With `O=C(Nc1ccccc1)Nc1ccc(N2CCCCC2)cc1` [Compound 321, 1-phenyl-3-(4-piperidin-1-ylphenyl)urea], under setting [1], the IC50 was under 2000 nM.
Still for that read-out and setting: as for `CCCOc1ccc(NC(=O)Nc2cccc(Cl)c2)cc1` [Compound 397, 1-(3-chlorophenyl)-3-(4-propoxyphenyl)urea], the figure is under 2000 nM; as for `Cc1cc(NC(=O)Nc2ccc(OC(F)F)cc2)ccc1F` [Compound 608, 1-[4-(difluoromethoxy)phenyl]-3-(4-fluoro-3-methylphenyl)urea], under 2000 nM.
With `CCOc1ccc(NC(=O)Nc2cccc(CC)c2)cc1` [Compound 234, N-(4-ethoxyphenyl)-N′-(3-ethylphenyl)urea], under setting [2], the half-inhibitory concentration (IC50) was under 2000 nM.
Take `CCCc1ccc(NC(=O)Nc2cccc(OC)c2)cc1` [Compound 524, 1-(3-methoxyphenyl)-3-(4-propylphenyl)urea]: the IC50 under setting [1] is under 2000 nM.
In the case of `CCOC(=O)c1ccc(NC(=O)Nc2ccc(F)cc2C(F)(F)F)cc1` [Compound 778, ethyl 4-[({[4-fluoro-2-(trifluoromethyl)phenyl]amino}carbonyl)amino]benzoate], under setting [1], the IC50 was under 2000 nM.
As to `CCOc1ccc(NC(=O)Nc2ccc(Cl)cc2)cc1` [Compound 237, N-(4-chlorophenyl)-N′-(4-ethoxyphenyl)urea], the IC50 under setting [2] is under 2000 nM.
For the molecule `N#Cc1cccc(NC(=O)Nc2ccc3c(c2)CCC3)c1` [Compound 454, 1-(3-cyanophenyl)-3-(2,3-dihydro-1H-inden-5-yl)urea], the IC50 under setting [1] was under 2000 nM.
`CC(=O)c1cccc(NC(=O)Nc2ccc(C(=O)OC(C)C)cc2)c1` [Compound 513, isopropyl 4-({[(3-acetylphenyl)amino]carbonyl}amino)benzoate]: the IC50 under setting [1] was under 2000 nM.
As to `CCCCc1ccc(NC(=O)Nc2cccc(C)c2)cc1` [Compound 155, N-(4-butylphenyl)-N′-(3-methylphenyl)urea], under setting [2], the IC50 is under 2000 nM.
As to `COCc1ccc(NC(=O)Nc2ccc(C(C)=O)cc2)cc1` [Compound 415, 1-(4-acetylphenyl)-3-[4-(methoxymethyl)phenyl]urea], the IC50 under setting [1] is under 2000 nM.
In the case of `CCCOc1ccc(NC(=O)Nc2ccc(OC)cc2)cc1` [Compound 547, 1-(4-methoxyphenyl)-3-(4-propoxyphenyl)urea], the IC50 under setting [1] is under 2000 nM.
Take `CCc1ccc(NC(=O)Nc2cccc(-c3ccc(Cl)cn3)c2)cc1` [Compound 75, N-[3-(5-chloropyridin-2-yl)phenyl]-N′-(4-ethylphenyl)urea]: the IC50 under setting [2] is under 2000 nM.
As for `Cc1ccc(NC(=O)Nc2ccc(C(=O)OC(C)C)cc2)cc1F` [Compound 740, isopropyl 4-({[(3-fluoro-4-methylphenyl)amino]carbonyl}amino)benzoate], the IC50 under setting [1] is under 2000 nM.

The values above are taken from patent US20090239841A1, “Diaryl Ureas as CB1 Antagonists” (priority 2004, published 2009).
